Source: US20030022250A1, “Functional IgE test methods and compositions” (priority 2001, published 2003)

Tested on: RBL SX-38 cells
Test: [3H]5-HT release (degranulation) from labeled and sensitized RBL SX-38 cells
Format: cell-based, rat
Conditions: pre-incubation 5 minutes at 37 C; 0.1 mM NECA, 30% D2O or 5 μg/ml cytochalasin B
Procedure: As specifically exemplified herein, we have labeled RBL SX-38 cells with ^3H-serotonin (5HT). A fraction of the tritiated 5-HT incorporated into cellular granules is released from the cells (in the process of degranulation) following their activation. The percentage of labeled 5-HT release, where the label is a radioactive moiety, is calculated as follows: disintegrations per minute (dpm) in the supernatant divided by the sum of the dpm in the supernatant plus the dpm in the residual cells. This formula is as follows:
% release =100×(dpm in the supematant)/(dpm in the supernatant+dpm in the residual cells).
For each experiment, a positive control, activation of the cells with anti-IgE is determined. The % release with anti-IgE (usually about 30-60% of the total 5-HT) is set at 100%. Degranulation with a given allergen is then expressed as a percent of that seen with anti-IgE. […]
Triggering is initiated by adding 5 μl of allergenic extracts (diluted to the appropriate concentration) or goat anti-human-IgE (3 μg/ml). […] Non-specific background release is assessed using negative controls, which have 5 μl PIPES buffer added instead of extract or anti-IgE. After 45 minutes, the plates are then removed and the tritium content of a 50 μl aliquot from the supernatant of each sample, in 5 ml of scintillation fluid, is determined. […]

CCNC(=O)[C@H]1O[C@@H](n2cnc3c(N)ncnc32)[C@H](O)[C@@H]1O [NECA, N-ethylcarboxamido adenosine] was tested, and the “effect on threshold for triggering by allergen” value was “lowers the threshold for triggering”.
